The values below come from article PMC10604610, “An Induced Pluripotent Stem Cell-Derived Human Blood–Brain Barrier (BBB) Model to Test the Crossing by Adeno-Associated Virus (AAV) Vectors and Antisense Oligonucleotides” (Biomedicines, 2023).

For one data set, the system named is hCMEC/D3 cells. To be noted: hCMEC/D3 on collagen I-coated Transwell polyester insert 0.4 μm pore, 900,000 cells/cm^2, 48 h; apical to basal; tracer 0.1 mg/mL in Ringer HEPES buffer pH 7.4; 37 °C, 60 min; fluorescence; mean of triplicate filters.
Another data set relates to iPSC-derived BMECs. To be noted: three iPSC-derived BMEC models (4603, 19-9-7T, AD3-CL1); Transwell polyester insert 0.4 μm pore, 900,000 cells/cm^2, 48 h culture; apical to basal; tracer 0.1 mg/mL in Ringer HEPES buffer pH 7.4; 37 °C, 60 min; fluorescence plate reader; mean of triplicate filters.
Data set [1] has as its system undifferentiated iPSCs (4603). The settings on record: undifferentiated iPSCs (4603) on collagen IV/fibronectin-coated Transwell insert, 900,000 cells/cm^2, 48 h; apical to basal; tracer 0.1 mg/mL in Ringer HEPES buffer pH 7.4; 37 °C, 60 min; fluorescence; mean of triplicate filters.

`O=C([O-])c1ccccc1-c1c2ccc(=O)cc-2oc2cc([O-])ccc12.[Na+].[Na+]` [Na-F, sodium fluorescein]: the “% Permeability (percentage of tracer present in the basal chamber)” value is recorded as “significantly higher than in iPSC-derived BMECs but significantly lower than that of control iPSCs” with hCMEC/D3 cells and “about 5%” in the data set with iPSC-derived BMECs.

In the case of lucifer yellow [LY], the “% Permeability (percentage of tracer present in the basal chamber)” value is reported as “around 16%” in the data set with hCMEC/D3 cells, “around 16%” in data set [1] and “Less than 2%” in the data set on iPSC-derived BMECs.
